Data: patent US8399682B2, “Substituted (pyrazolylcarbonyl)imidazolidinones and their use” (AiCuris GmbH & Co. KG, priority 2008, dated 2013)
Like-named read-outs stand apart in the source and are kept apart here.

What was measured:
[1] = tested on: HIV-1NL4-3 K103N-Y181C; assay: Light assay with inhibitor-resistant HI reporter virus in MT4 7F2 cells; format: cell-based; details: Human immunodeficiency virus 1, read-out: EC50 (nM) MT4 7F2 cells HIV-1NL4-3 K103N-Y181C 2% FCS
Experimental: (§1) For the mixture for a 96-well MTP, 3 million MT4 7F2 cells are pelleted, suspended in 1 ml of RPMI 1640 medium without phenol red (Invitrogen, Karlsruhe, Germany)/10% FCS/10% AIM-V (Invitrogen, Karlsruhe, Germany) and incubated together with a suitable amount of the corresponding HIV-1NL4-3 reporter virus at 37° C. for 2 hours (pellet infection). Unadsorbed viruses are subsequently washed out with PBS, and the infected cells are pelleted again and suspended in 8 ml of RPMI 1640 medium without phenol red/2% or 10% FCS/10% AIM-V. 80 μl thereof are pipetted into each well of a white 96-well MTP with 20 μl of test substance in suitable dilution. To avoid edge effects, the wells on the edge of the MTP are not used for substance dilutions. The second vertical row of the MTP contains only infected cells (virus control) and the eleventh vertical row only uninfected cells (cell control), in each case in RPMI 1640 medium without phenol red/2% or 10% FCS/10% AIM-V. The other wells of the MTP contain the compounds of the invention in various concentrations starting from the third vertical row, from which the test substances are diluted in 3-fold steps up to the tenth vertical row 3^7-fold. The test substances are dissolved in DMSO, whereby the final DMSO concentration in the test mixture eventually is 1%. The test mixtures are incubated at 37° C./5% CO2 for five days and, after the addition of 15 μl of Lu164 substrate (5 mg/ml coelenterazine dissolved in 30 μM glutathione/DMSO, 100 mM NaCl, 1M MES, 100 mM glutathione), evaluated by luminometry. The resulting values are in the region of 1 000 000 RLUs (relative light units) for the virus control and 300 to 400 RLUs for the cell control. The EC50 values of the test substances are determined as the concentration at which the virus replication measured in RLUs is 50% of the untreated infected cells.

[2] = target: T1, reverse transcriptase (Human immunodeficiency virus type 1 group M subtype B, UniProt P04585); assay: Biochemical Reverse Transcriptase Assay (Reverse Transcriptase Assay, colorimetric, Roche)
T1 construct: negative control (mixture without reverse transcriptase); purchased Roche Diagnostics GmbH, Mannheim, Germany
Experimental: The “Reverse Transcriptase Assay, colorimetric” (Roche Diagnostics GmbH, Mannheim, Germany) is used in accordance with the manufacturer's information. The test substances are dissolved in DMSO and are used in the test diluted in 5-fold steps (final DMSO concentration 1%). The resulting values of the photometric evaluation (405/492 nm) are less than 0.1 for the negative control (mixture without reverse transcriptase) and are in the region of 1.5 for the positive control (mixture without test substance). The IC50 values of the test substances are determined as the concentration of the test substance dilution at which the measured optical density is 50% of the positive control.

[3] = tested on: HIV-1LAI; assay: H9 assay with wild-type HIV-1 (HIV-1LAI supernatant infection, AlamarBlue); format: cell-based; details: Human immunodeficiency virus 1, H9 cells, 10% FCS
Experimental: For the mixture for a 96-well MTP, 3 million PBLs are pelleted, suspended in 1 ml of RPMI 1640 medium/10% FCS and incubated together with a suitable amount of HIV-1LAI (NIH AIDS Research & Reference Reagent Program, Germantown, USA) at 37° C. for 2 hours (pellet infection). Unadsorbed viruses are subsequently washed out with PBS, and the infected cells are pelleted again and suspended in 18 ml of RPMI 1640 medium/10% FCS/interleukin-2 (40 U/ml). 180 μl thereof are pipetted into each well of a white 96-well MTP with 20 μl of test substance in suitable dilution. Alternatively, after preparation of the substance dilutions in the MTP, the HIV is pipetted in together with the cells and is not washed out again (supernatant infection). In order to avoid edge effects, the wells at the edge of the MTP are not used for substance dilutions. The second vertical row of the MTP contains only infected cells (virus control) and the eleventh vertical row only uninfected cells (cell control), in each case in RPMI 1640 medium/10% FCS/interleukin-2 (40 U/ml). The other wells of the MTP contain the compounds of the invention in various concentrations starting from the third vertical row, from which the test substances are diluted in 3-fold steps up to the tenth vertical row 3^7-fold. The test substances are dissolved in DMSO, whereby the final DMSO concentration in the test mixture eventually is 1%. The test mixtures are incubated at 37° C./5% CO2. After 5 and 7 days, 50 μl of cell-free supernatant are removed from each well to determine the amount of p24 present by means of a p24 ELISA (HIV-1 p24^CA Antigen Capture Assay Kit, NCI-Frederick Cancer Research and Development Center, Frederick, USA). From the resulting values of the photometric evaluation (450/620 nm) the EC50 values of the test substances are determined as the concentration at which the amount of p24 is 50% of the untreated infected cells.
Alternatively, H9 cells (ATCC, Wesel, Germany) are employed instead of PBLs for testing the test substances. H9 cells are incubated in RPMI 1640 medium with 2% or 10% FCS as a HIV-1LAI supernatant infection at 37° C./5% CO2, (20 μl of substance dilution and 80 μl of cells/virus per well) in accordance with the pattern described above for 5 days. Subsequently, 10 μl of AlamarBlue (Invitrogen, Karlsruhe, Germany) are added to each well, and the MTPs are incubated at 37° C. for 3 hours before the fluorimetric evaluation takes place (544/590 nm). The resulting values are about 40 000 for the untreated uninfected cells and about 7000 for the untreated infected cells. In the low concentration range, the EC50 values of the test substances are determined as the concentration at which the fluorescence is 50% of the untreated uninfected cells (in each case subtracting the values of the untreated infected cells). In addition, in the high concentration range, the CC50 values of the test substances are determined as the concentration at which the fluorescence is 50% of the untreated uninfected cells (in each case subtracting the values of the untreated infected cells).

[4] = tested on: HIV-1NL4-3 wt; assay: Light assay with wild-type HI reporter virus in MT4 7F2 cells; format: cell-based; details: Human immunodeficiency virus 1, 2% FCS
Experimental: as §1

SMILES | EC50 [1] | IC50 ([2]; read-out: IC50 (nM) RT Assay) | EC50 [3] | EC50 [4] | IC50 [2]
O=C1CN(C(=O)c2cc(-c3cc(F)cc(Cl)c3)n(-c3ccc(F)c(Cl)c3)n2)CN1 [Example 1, 1-{[1-(3-Chloro-4-fluorophenyl)-5-(3-chloro-5-fluorophenyl)-1H-pyrazol-3-yl]carbonyl}imidazolidin-4-one] | 3 nM | 38 nM | 2 nM | 0.2 nM | –
O=C1CN(C(=O)c2cc(-c3cc(F)cc(Cl)c3)n(-c3cccc(Cl)c3)n2)CN1 [Example 2, 1-{[5-(3-Chloro-5-fluorophenyl)-1-(3-chlorophenyl)-1H-pyrazol-3-yl]carbonyl}imidazolidin-4-one] | 11 nM | 34 nM | 0.2 nM | 0.06 nM | –
O=C1CN(C(=O)c2cc(-c3cc(F)cc(F)c3)n(-c3cccc(Cl)c3)n2)CN1 [Example 3, 1-{[1-(3-Chlorophenyl)-5-(3,5-difluorophenyl)-1H-pyrazol-3-yl]carbonyl}imidazolidin-4-one] | 7 nM | 37 nM | 0.2 nM | 0.03 nM | –
O=C1CN(C(=O)c2cc(-c3cccc(Cl)c3)n(-c3cccc(Cl)c3)n2)CN1 [Example 4, 1-{[1,5-Bis(3-chlorophenyl)-1H-pyrazol-3-yl]carbonyl}imidazolidin-4-one] | 45 nM | 75 nM | 11 nM | 1 nM | –
COc1cc(F)cc(-c2cc(C(=O)N3CNC(=O)C3)nn2-c2cccc(Cl)c2)c1 [Example 21, 1-{[1-(3-Chlorophenyl)-5-(3-fluoro-5-methoxyphenyl)-1H-pyrazol-3-yl]carbonyl}imidazolidin-4-one] | 38 nM | 59 nM | 3 nM | 1 nM | –
COc1cc(F)cc(-c2cc(C(=O)N3CNC(=O)C3)nn2-c2ccc(F)c(Cl)c2)c1 [Example 22, 1-{[1-(3-Chloro-4-fluorophenyl)-5-(3-fluoro-5-methoxyphenyl)-1H-pyrazol-3-yl]carbonyl}imidazolidin-4-one] | 10 nM | 131 nM | 2 nM | 0.3 nM | –
N#Cc1cccc(-c2cc(C(=O)N3CNC(=O)C3)nn2-c2ccc(F)c(Cl)c2)c1 [Example 25] | 30 nM | 99 nM | 2 nM | 0.6 nM | –
O=C1CN(C(=O)c2cc(-c3cccc(F)c3)n(-c3ccc(F)c(Cl)c3)n2)CN1 [Example 26, 1-{[1-(3-Chloro-4-fluorophenyl)-5-(3-fluorophenyl)-1H-pyrazol-3-yl]carbonyl}imidazolidin-4-one] | 65 nM | 104 nM | 11 nM | 2 nM | –
O=C1CN(C(=O)c2cc(-c3cc(F)cc(C(F)(F)F)c3)n(-c3cccc(Cl)c3)n2)CN1 [Example 30, 1-({1-(3-Chlorophenyl)-5-[3-fluoro-5-(trifluoromethyl)phenyl]-1H-pyrazol-3-yl}carbonyl)imidazolidin-4-one] | 16 nM | 297 nM | 8 nM | 3 nM | –
O=C1CN(C(=O)c2cc(-c3cccc(Cl)c3)n(-c3cccc(Br)c3)n2)CN1 [Example 32, 1-{[1-(3-Bromophenyl)-5-(3-chlorophenyl)-1H-pyrazol-3-yl]carbonyl}imidazolidin-4-one] | 25 nM | 65 nM | 0.7 nM | 0.1 nM | –
O=C1CN(C(=O)c2cc(-c3ccc(F)c(Cl)c3)n(-c3cccc(Br)c3)n2)CN1 [Example 33, 1-{[1-(3-Bromophenyl)-5-(3-chloro-4-fluorophenyl)-1H-pyrazol-3-yl]carbonyl}imidazolidin-4-one] | 3 nM | 8 nM | 0.5 nM | 0.07 nM | –
O=C1CN(C(=O)c2cc(-c3cc(F)cc(OCCO)c3)n(-c3ccc(F)c(Cl)c3)n2)CN1 [Example 36] | 45 nM | – | 3 nM | 0.6 nM | 52 nM
O=C1CN(C(=O)c2cc(-c3cccc(OCCCN4CCOCC4)c3)n(-c3cccc(Cl)c3)n2)CN1 [Example 37, 1-({1-(3-Chlorophenyl)-5-[3-(3-morpholin-1-ylpropoxy)phenyl]-1H-pyrazol-3-yl}carbonyl)imidazolidin-4-one] | 2000 nM | 175 nM | 33 nM | 18 nM | –
COc1cccc(-c2cc(C(=O)N3CNC(=O)C3)nn2-c2ccc(F)c(Cl)c2)c1 [Example 38, 1-{[1-(3-Chloro-4-fluorophenyl)-5-(3-methoxyphenyl)-1H-pyrazol-3-yl]carbonyl}imidazolidin-4-one] | 80 nM | 365 nM | 120 nM | 9 nM | –
Cc1cc(F)cc(-c2cc(C(=O)N3CNC(=O)C3)nn2-c2cccc(Cl)c2)c1 [Example 51, 1-{[1-(3-Chlorophenyl)-5-(3-fluoro-5-methylphenyl)-1H-pyrazol-3-yl]carbonyl}imidazolidin-4-one] | 15 nM | 60 nM | 1 nM | 0.4 nM | –
N#Cc1cccc(-n2nc(C(=O)N3CNC(=O)C3)cc2-c2ccc(F)c(Cl)c2)c1 [Example 52, 1-{[5-(3-Chloro-4-fluorophenyl)-1-(3-Cyanophenyl)-1H-pyrazol-3-yl]carbonyl}imidazolidin-4-one] | 17 nM | 38 nM | 2 nM | 0.1 nM | –
N#Cc1cc(-n2nc(C(=O)N3CNC(=O)C3)cc2-c2cccc(Cl)c2)ccc1F [Example 53, 1-{[5-(3-Chlorophenyl)-1-(3-Cyano-4-fluorophenyl)-1H-pyrazol-3-yl]carbonyl}imidazolidin-4-one] | 33 nM | 46 nM | 1 nM | 0.3 nM | –
N#Cc1cccc(-n2nc(C(=O)N3CNC(=O)C3)cc2-c2cccc(Cl)c2)c1 [Example 56, 3-{5-(3-Chlorophenyl)-3-[(4-oxoimidazolidin-1-yl)carbonyl]-1H-pyrazol-1-yl}benzenecarbonitrile] | 12 nM | 14 nM | 0.1 nM | 0.03 nM | –
